Source: ChEMBL document CHEMBL3994622, “Design and synthesis of new RAF kinase-inhibiting antiproliferative quinoline derivatives. Part 2: Diarylurea derivatives” (Eur J Med Chem, 2017)

Tests used:
Assay type in all cases: functional
[1] = test system: SR; test: Growth inhibition of human SR cells assessed as cell growth at 1 uM incubated for 48 hrs by sulforhodamine B assay relative to control; details: read-out: Activity
[2] = test system: OVCAR-8; test: Growth inhibition of human OVCAR8 cells assessed as cell growth at 1 uM incubated for 48 hrs by sulforhodamine B assay relative to control; details: OVCAR-8, 48 h, read-out: Activity
[3] = test system: IGROV-1; test: Growth inhibition of human IGROV1 cells assessed as cell growth at 0.1 uM incubated for 48 hrs by sulforhodamine B assay relative to control; details: IGROV-1, 48 h, read-out: Activity
[4] = test system: RPMI-8226; test: Growth inhibition of human RPMI8226 cells assessed as cell growth at 0.1 uM incubated for 48 hrs by sulforhodamine B assay relative to control; details: RPMI-8226, 48 h, read-out: Activity
[5] = test system: MDA-MB-435; test: Growth inhibition of human MDA-MB-435 cells assessed as cell growth at 0.1 uM incubated for 48 hrs by sulforhodamine B assay relative to control; details: MDA-MB-435, 48 h, read-out: Activity
[6] = test system: A549; test: Growth inhibition of human A549/ATCC cells assessed as cell growth at 1 uM incubated for 48 hrs by sulforhodamine B assay relative to control; details: A549, 48 h, read-out: Activity
[7] = test system: HCT-15; test: Growth inhibition of human HCT15 cells assessed as cell growth at 0.01 uM incubated for 48 hrs by sulforhodamine B assay relative to control; details: HCT-15, 48 h, read-out: Activity
[8] = test system: CCRF-CEM; test: Growth inhibition of human CCRF-CEM cells assessed as cell growth at 1 uM incubated for 48 hrs by sulforhodamine B assay relative to control; details: read-out: Activity
[9] = test system: RPMI-8226; test: Growth inhibition of human RPMI8226 cells assessed as cell growth at 1 uM incubated for 48 hrs by sulforhodamine B assay relative to control; details: RPMI-8226, 48 h, read-out: Activity
[10] = test system: BT-549; test: Growth inhibition of human BT549 cells assessed as cell growth at 1 uM incubated for 48 hrs by sulforhodamine B assay relative to control; details: BT-549, 48 h, read-out: Activity
[11] = test system: OVCAR-3; test: Growth inhibition of human OVCAR3 cells assessed as cell growth at 1 uM incubated for 48 hrs by sulforhodamine B assay relative to control; details: OVCAR-3, 48 h, read-out: Activity
[12] = test system: LOX IMVI; test: Growth inhibition of human LOXIMVI cells assessed as cell growth at 1 uM incubated for 48 hrs by sulforhodamine B assay relative to control; details: read-out: Activity
[13] = test system: HT-29; test: Growth inhibition of human HT-29 cells assessed as cell growth at 1 uM incubated for 48 hrs by sulforhodamine B assay relative to control; details: HT-29, 48 h, read-out: Activity
[14] = test system: HCT-116; test: Growth inhibition of human HCT116 cells assessed as cell growth at 0.1 uM incubated for 48 hrs by sulforhodamine B assay relative to control; details: HCT-116, 48 h, read-out: Activity
[15] = test system: SNB-75; test: Growth inhibition of human SNB75 cells assessed as cell growth at 100 uM incubated for 48 hrs by sulforhodamine B assay relative to control; details: SNB-75, 48 h, read-out: Activity
[16] = test system: SN12C; test: Growth inhibition of human SN12C cells assessed as cell growth at 0.1 uM incubated for 48 hrs by sulforhodamine B assay relative to control; details: read-out: Activity
[17] = test system: OVCAR-3; test: Growth inhibition of human OVCAR3 cells assessed as cell growth at 0.01 uM incubated for 48 hrs by sulforhodamine B assay relative to control; details: OVCAR-3, 48 h, read-out: Activity
[18] = test system: U-251; test: Growth inhibition of human U251 cells assessed as cell growth at 0.01 uM incubated for 48 hrs by sulforhodamine B assay relative to control; details: U-251, 48 h, read-out: Activity
[19] = test system: DU-145; test: Growth inhibition of human DU145 cells assessed as cell growth at 0.01 uM incubated for 48 hrs by sulforhodamine B assay relative to control; details: DU-145, 48 h, read-out: Activity
[20] = test system: UO-31; test: Growth inhibition of human UO31 cells assessed as cell growth at 0.01 uM incubated for 48 hrs by sulforhodamine B assay relative to control; details: UO-31, 48 h, read-out: Activity
[21] = test system: PC-3; test: Growth inhibition of human PC3 cells assessed as cell growth at 0.003 uM incubated for 48 hrs by sulforhodamine B assay relative to control; details: PC-3, 48 h, read-out: Activity
[22] = test system: ACHN; test: Growth inhibition of human ACHN cells assessed as cell growth at 0.3 uM incubated for 48 hrs by sulforhodamine B assay relative to control; details: read-out: Activity
[23] = test system: HT-29; test: Growth inhibition of human HT-29 cells assessed as cell growth at 3 uM incubated for 48 hrs by sulforhodamine B assay relative to control; details: HT-29, 48 h, read-out: Activity
[24] = test system: NCI-H522; test: Growth inhibition of human NCI-H522 cells assessed as cell growth at 3 uM incubated for 48 hrs by sulforhodamine B assay relative to control; details: NCI-H522, 48 h, read-out: Activity
[25] = test system: COLO 205; test: Growth inhibition of human COLO205 cells assessed as cell growth at 30 uM incubated for 48 hrs by sulforhodamine B assay relative to control; details: COLO 205, 48 h, read-out: Activity
[26] = test system: U-251; test: Growth inhibition of human U251 cells assessed as cell growth at 3 uM incubated for 48 hrs by sulforhodamine B assay relative to control; details: U-251, 48 h, read-out: Activity
[27] = test system: SF-539; test: Growth inhibition of human SF539 cells assessed as cell growth at 0.3 uM incubated for 48 hrs by sulforhodamine B assay relative to control; details: SF-539, 48 h, read-out: Activity
[28] = test system: A549; test: Growth inhibition of human A549/ATCC cells assessed as cell growth at 0.003 uM incubated for 48 hrs by sulforhodamine B assay relative to control; details: A549, 48 h, read-out: Activity
[29] = test system: 786-0; test: Growth inhibition of human 786-0 cells assessed as cell growth at 0.3 uM incubated for 48 hrs by sulforhodamine B assay relative to control; details: 786-0, 48 h, read-out: Activity
[30] = test system: OVCAR-4; test: Growth inhibition of human OVCAR4 cells assessed as cell growth at 0.3 uM incubated for 48 hrs by sulforhodamine B assay relative to control; details: OVCAR-4, 48 h, read-out: Activity
[31] = test system: NCI-H23; test: Growth inhibition of human NCI-H23 cells assessed as cell growth at 30 uM incubated for 48 hrs by sulforhodamine B assay relative to control; details: NCI-H23, 48 h, read-out: Activity
[32] = test system: PC-3; test: Growth inhibition of human PC3 cells assessed as cell growth at 30 uM incubated for 48 hrs by sulforhodamine B assay relative to control; details: PC-3, 48 h, read-out: Activity
[33] = test system: MDA-MB-435; test: Growth inhibition of human MDA-MB-435 cells assessed as cell growth at 0.03 uM incubated for 48 hrs by sulforhodamine B assay relative to control; details: MDA-MB-435, 48 h, read-out: Activity
[34] = test system: NCI-H460; test: Growth inhibition of human NCI-H460 cells assessed as cell growth at 0.03 uM incubated for 48 hrs by sulforhodamine B assay relative to control; details: NCI-H460, 48 h, read-out: Activity

Compound	growth at 1 µM [1] [%]	growth at 1 µM [2] [%]	growth at 0.1 µM [3] [%]	growth at 0.1 µM [4] [%]	growth at 0.1 µM [5] [%]	growth at 1 µM [6] [%]	growth at 0.01 µM [7] [%]	growth at 1 µM [8] [%]	growth at 1 µM [9] [%]	growth at 1 µM [10] [%]	growth at 1 µM [11] [%]	growth at 1 µM [12] [%]	growth at 1 µM [13] [%]	growth at 0.1 µM [14] [%]	growth at 100 µM [15] [%]	growth at 0.1 µM [16] [%]	growth at 0.01 µM [17] [%]	growth at 0.01 µM [18] [%]	growth at 0.01 µM [19] [%]	growth at 0.01 µM [20] [%]	further results
COc1cc2cc(Oc3ccc(NC(=O)Nc4cc(C(F)(F)F)cc(C(F)(F)F)c4)cc3)c(C)nc2cc1OC	69	76	95	93	98	65	93	39	23	86	27	75	75	106	-44	100	104	100	103	82	
Cc1nc2cc(O)c(O)cc2cc1Oc1ccc(NC(=O)Nc2ccc(Cl)c(Cl)c2)cc1																					growth at 0.003 µM [21]: 104%; growth at 0.3 µM [22]: 107%; growth at 3 µM [23]: 98%; growth at 3 µM [24]: 65%; growth at 30 µM [25]: 16%; growth at 3 µM [26]: 71%; growth at 0.3 µM [27]: 99%; growth at 0.003 µM [28]: 100%; growth at 0.3 µM [29]: 95%; growth at 0.3 µM [30]: 94%; growth at 30 µM [31]: -25%; growth at 30 µM [32]: 6%; growth at 0.03 µM [33]: 91%; growth at 0.03 µM [34]: 99%
COc1cc2cc(Oc3ccc(NC(=O)Nc4ccc(Cl)c(Cl)c4)cc3)c(C)nc2cc1OC	98	96	112	101	92	66	100	78	69	78	94	85	108	102	-59	95	109	94	109	96	
COc1cc2cc(Oc3ccc(NC(=O)Nc4ccc(Cl)c(C(F)(F)F)c4)cc3)c(C)nc2cc1OC																					growth at 0.003 µM [21]: 95%; growth at 0.3 µM [22]: 95%; growth at 3 µM [23]: 8%; growth at 3 µM [24]: -8%; growth at 30 µM [25]: -92%; growth at 3 µM [26]: 6%; growth at 0.3 µM [27]: 107%; growth at 0.003 µM [28]: 94%; growth at 0.3 µM [29]: 93%; growth at 0.3 µM [30]: 94%; growth at 30 µM [31]: -75%; growth at 30 µM [32]: -50%; growth at 0.03 µM [33]: 95%; growth at 0.03 µM [34]: 105%
